Results: ChEMBL document CHEMBL1909046, “DrugMatrix in vitro pharmacology data”

What was measured:
[1] = target: T1, Alpha-2C adrenergic receptor (Homo sapiens, UniProt P18825); assay: DRUGMATRIX: Adrenergic Alpha-2C radioligand binding (ligand: [3H] MK-912); format: cell membranes, Sf9, Membrane; conditions: sf9
T1 sequence (P18825 whole entry): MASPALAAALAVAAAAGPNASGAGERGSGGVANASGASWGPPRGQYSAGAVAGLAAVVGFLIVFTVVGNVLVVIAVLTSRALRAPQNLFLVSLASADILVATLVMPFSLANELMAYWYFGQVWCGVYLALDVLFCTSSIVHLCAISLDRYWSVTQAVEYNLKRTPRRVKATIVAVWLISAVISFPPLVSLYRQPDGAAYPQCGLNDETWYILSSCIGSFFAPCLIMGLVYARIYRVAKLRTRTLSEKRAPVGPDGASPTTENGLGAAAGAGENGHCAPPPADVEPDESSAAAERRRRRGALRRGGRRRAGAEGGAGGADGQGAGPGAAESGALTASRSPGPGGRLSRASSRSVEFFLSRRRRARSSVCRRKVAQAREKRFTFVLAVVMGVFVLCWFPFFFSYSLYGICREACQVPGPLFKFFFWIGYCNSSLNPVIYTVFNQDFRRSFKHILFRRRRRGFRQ

[2] = target: T2, Type-2 angiotensin II receptor (Homo sapiens, UniProt P50052); format: cell-based; conditions: cho-k1; also: in other assays of this panel Not Active means under 50% inhibition at 10 µM
T2 sequence (P50052 whole entry): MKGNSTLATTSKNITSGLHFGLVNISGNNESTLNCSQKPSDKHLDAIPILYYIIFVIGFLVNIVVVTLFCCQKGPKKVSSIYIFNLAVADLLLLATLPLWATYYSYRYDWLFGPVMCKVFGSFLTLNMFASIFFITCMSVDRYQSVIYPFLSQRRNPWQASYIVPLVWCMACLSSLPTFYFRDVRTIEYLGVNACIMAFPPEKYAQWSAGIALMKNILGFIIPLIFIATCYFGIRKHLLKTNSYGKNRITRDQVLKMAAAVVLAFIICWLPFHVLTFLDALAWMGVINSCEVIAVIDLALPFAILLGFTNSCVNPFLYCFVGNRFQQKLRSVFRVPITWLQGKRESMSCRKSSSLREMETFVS

[3] = DRUGMATRIX: Atrial Natriuretic Factor (ANF) radioligand binding (ligand: [125I] ANF (rat)); format: cell membranes, Cavia porcellus, Dunkin-Hartley, Adrenal gland, Membrane; conditions: Not Active = under 50% inhibition at 10 µM
[4] = DRUGMATRIX: GABAA, Chloride Channel, TBOB radioligand binding (ligand: [3H] TBOB); format: cell membranes, Rattus norvegicus, Wistar, Cerebral cortex, Membrane; conditions: Not Active = under 50% inhibition at 10 µM
[5] = target: T3, 3-hydroxy-3-methylglutaryl-coenzyme A reductase (Homo sapiens, UniProt P04035); parameters: species or system Escherichia coli;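 also: enzyme inhibition assay of HMG-CoA reductase using radiolabeled [14C]HMG-CoA as substrate; in other assays of this panel Not Active means under 50% inhibition at 10 µM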
T3 sequence (P04035 whole entry): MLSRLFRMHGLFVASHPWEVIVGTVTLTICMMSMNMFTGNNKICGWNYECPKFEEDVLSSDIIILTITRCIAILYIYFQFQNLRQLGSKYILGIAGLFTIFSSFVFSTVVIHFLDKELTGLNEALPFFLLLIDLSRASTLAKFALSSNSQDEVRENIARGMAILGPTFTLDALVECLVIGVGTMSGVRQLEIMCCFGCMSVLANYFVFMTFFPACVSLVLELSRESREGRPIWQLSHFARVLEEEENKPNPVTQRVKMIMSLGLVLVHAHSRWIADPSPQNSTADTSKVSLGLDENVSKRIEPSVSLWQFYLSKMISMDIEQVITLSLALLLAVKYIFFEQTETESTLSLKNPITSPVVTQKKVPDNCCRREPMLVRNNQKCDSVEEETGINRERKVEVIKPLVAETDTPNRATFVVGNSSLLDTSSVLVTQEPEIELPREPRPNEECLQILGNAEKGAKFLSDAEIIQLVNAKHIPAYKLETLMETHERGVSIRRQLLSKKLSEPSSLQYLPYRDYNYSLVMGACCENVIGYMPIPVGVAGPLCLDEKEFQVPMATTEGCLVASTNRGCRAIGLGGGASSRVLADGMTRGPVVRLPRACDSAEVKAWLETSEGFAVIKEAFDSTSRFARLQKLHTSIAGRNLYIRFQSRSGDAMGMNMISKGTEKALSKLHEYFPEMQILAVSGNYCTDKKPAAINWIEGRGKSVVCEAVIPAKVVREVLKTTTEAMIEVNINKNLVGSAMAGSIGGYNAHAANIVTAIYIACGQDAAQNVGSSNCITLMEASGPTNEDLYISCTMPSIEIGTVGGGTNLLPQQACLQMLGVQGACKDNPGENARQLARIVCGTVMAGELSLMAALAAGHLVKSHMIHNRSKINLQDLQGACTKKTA

[6] = DRUGMATRIX: Phosphodiesterase PDE3 enzyme inhibition (substrate: [3H]cAMP + cAMP); format: tissue-based, Homo sapiens; conditions: platelet; Not Active = under 50% inhibition at 10 µM
[7] = target: T4, Neutrophil elastase (Homo sapiens, UniProt P08246); format: tissue-based;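 also: inhibition of neutrophil elastase enzyme activity, measured with a p-nitroanilide-linked peptide substrate; in other assays of this panel Not Active means under 50% inhibition at 10 µM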
T4 sequence (P08246 whole entry): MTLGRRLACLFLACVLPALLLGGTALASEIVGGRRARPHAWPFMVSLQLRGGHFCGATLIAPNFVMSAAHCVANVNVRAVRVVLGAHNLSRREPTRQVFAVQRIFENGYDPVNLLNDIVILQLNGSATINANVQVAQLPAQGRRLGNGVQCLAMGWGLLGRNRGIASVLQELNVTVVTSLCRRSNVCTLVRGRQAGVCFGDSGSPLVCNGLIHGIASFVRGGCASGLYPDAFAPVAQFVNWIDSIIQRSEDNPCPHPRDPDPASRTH

[8] = target: T5, Cytochrome P450 1A2 (Homo sapiens, UniProt P05177); conditions: bti-tn-5b1-4; also: in other assays of this panel Not Active means under 50% inhibition at 10 µM
T5 sequence (P05177 whole entry): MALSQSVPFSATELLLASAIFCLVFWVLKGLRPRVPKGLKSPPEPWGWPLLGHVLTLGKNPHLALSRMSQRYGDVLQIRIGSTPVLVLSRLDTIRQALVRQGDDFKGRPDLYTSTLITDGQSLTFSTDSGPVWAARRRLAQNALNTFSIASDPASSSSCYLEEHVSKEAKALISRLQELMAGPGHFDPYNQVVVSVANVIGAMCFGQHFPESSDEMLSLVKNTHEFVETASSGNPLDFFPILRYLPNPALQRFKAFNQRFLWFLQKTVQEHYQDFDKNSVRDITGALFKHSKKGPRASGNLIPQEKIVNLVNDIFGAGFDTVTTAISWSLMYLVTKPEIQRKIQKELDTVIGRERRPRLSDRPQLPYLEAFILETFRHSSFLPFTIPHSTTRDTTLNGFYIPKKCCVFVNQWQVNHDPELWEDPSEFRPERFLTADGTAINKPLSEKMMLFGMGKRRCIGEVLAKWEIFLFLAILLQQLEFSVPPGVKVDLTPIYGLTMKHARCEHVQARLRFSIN

[9] = target: Cytochrome P450 2C19 (Homo sapiens, UniProt P33261); conditions: bti-tn-5b1-4; also: in other assays of this panel Not Active means under 50% inhibition at 10 µM
Sequence of Cytochrome P450 2C19 (P33261 whole entry): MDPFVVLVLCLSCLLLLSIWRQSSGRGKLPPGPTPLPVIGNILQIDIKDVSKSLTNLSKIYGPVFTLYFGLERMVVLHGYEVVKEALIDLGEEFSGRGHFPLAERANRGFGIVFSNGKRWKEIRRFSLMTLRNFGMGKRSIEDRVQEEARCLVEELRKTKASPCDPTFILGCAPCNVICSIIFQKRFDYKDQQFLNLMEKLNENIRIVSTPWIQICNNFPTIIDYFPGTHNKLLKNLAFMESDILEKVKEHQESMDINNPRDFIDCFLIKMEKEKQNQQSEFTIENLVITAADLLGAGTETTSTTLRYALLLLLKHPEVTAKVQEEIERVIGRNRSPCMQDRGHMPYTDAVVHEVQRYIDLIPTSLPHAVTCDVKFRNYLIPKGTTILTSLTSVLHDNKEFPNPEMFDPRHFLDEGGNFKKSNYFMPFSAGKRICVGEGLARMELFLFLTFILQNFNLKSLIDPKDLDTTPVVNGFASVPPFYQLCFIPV

NC[C@H]1CC[C@H](C(=O)O)CC1 [TRANEXAMIC ACID]
Not Active: IC50 [1] | IC50 [2] | IC50 [3] | Ki [3] | IC50 [4] | Ki [4] | IC50 [5] | IC50 [6] | Ki [6] | IC50 [7] | IC50 [8] | Ki [8] | IC50 [9] | Ki [9]

CC1(C)O[C@@H]2C[C@H]3[C@@H]4CCC5=CC(=O)C=C[C@]5(C)[C@@]4(F)[C@@H](O)C[C@]3(C)[C@]2(C(=O)CO)O1 [TRIAMCINOLONE ACETONIDE]
Not Active: IC50 [1] | IC50 [2] | IC50 [3] | Ki [3] | IC50 [4] | Ki [4] | IC50 [5] | IC50 [6] | Ki [6] | IC50 [7] | IC50 [8] | Ki [8] | IC50 [9] | Ki [9]

NS(=O)(=O)c1cc2c(cc1Cl)NC(C(Cl)Cl)NS2(=O)=O (stereo not given) [TRICHLORMETHIAZIDE]
Not Active: IC50 [1] | IC50 [2] | IC50 [3] | Ki [3] | IC50 [4] | Ki [4] | IC50 [5] | IC50 [6] | Ki [6] | IC50 [7] | IC50 [8] | Ki [8] | IC50 [9] | Ki [9]

Cc1c(C)c2c(c(C)c1O)CCC(C)(COc1ccc(CC3SC(=O)NC3=O)cc1)O2 (stereo not given) [TROGLITAZONE]
Not Active: IC50 [1] | IC50 [2] | IC50 [3] | Ki [3] | IC50 [4] | Ki [4] | IC50 [5] | IC50 [6] | Ki [6] | IC50 [7] | IC50 [8] | Ki [8] | IC50 [9] | Ki [9]

N[C@@H]1[C@H]2CN(c3nc4c(cc3F)c(=O)c(C(=O)O)cn4-c3ccc(F)cc3F)C[C@@H]12 [TROVAFLOXACIN]
Not Active: IC50 [1] | IC50 [2] | IC50 [3] | Ki [3] | IC50 [4] | Ki [4] | IC50 [5] | IC50 [6] | Ki [6] | IC50 [7] | IC50 [8] | Ki [8] | IC50 [9] | Ki [9]

N#CC(C#N)=Cc1ccc(O)c(O)c1 [TYRPHOSTIN 23]
Not Active: IC50 [1] | IC50 [2] | IC50 [3] | Ki [3] | IC50 [4] | Ki [4] | IC50 [5] | IC50 [6] | Ki [6] | IC50 [7] | IC50 [8] | Ki [8] | IC50 [9] | Ki [9]

CC[C@]1(O)C[C@H]2CN(CCc3c([nH]c4ccccc34)[C@@](C(=O)OC)(c3cc4c(cc3OC)N(C=O)[C@H]3[C@@](O)(C(=O)OC)[C@H](OC(C)=O)[C@]5(CC)C=CCN6CC[C@]43[C@@H]65)C2)C1 [VINCRISTINE]
Not Active: IC50 [1] | IC50 [2] | IC50 [3] | Ki [3] | IC50 [4] | Ki [4] | IC50 [5] | IC50 [6] | Ki [6] | IC50 [7] | IC50 [8] | Ki [8] | IC50 [9] | Ki [9]

CCCOc1ccccc1-c1nc2nn[nH]c2c(=O)[nH]1 [ZAPRINAST]
Not Active: IC50 [1] | IC50 [2] | IC50 [3] | Ki [3] | IC50 [4] | Ki [4] | IC50 [5] | IC50 [6] | Ki [6] | IC50 [7] | IC50 [8] | Ki [8] | IC50 [9] | Ki [9]

SODIUM NITROPRUSSIDE
Not Active: IC50 [1] | Ki [1] | IC50 [2] | Ki [2] | IC50 [3] | Ki [3] | IC50 [4] | Ki [4] | IC50 [5] | Ki [5] | IC50 [6] | Ki [6] | IC50 [7] | Ki [7] | IC50 [8] | Ki [8] | IC50 [9] | Ki [9]
